Consider 25 compounds from patent US11236046B2, “Substituted heterocyclic sulfonamide compounds useful as TRPA1 modulators” (Genentech, Inc., priority 2013, dated 2022).

A word on the IC50: it is the point on the concentration scale where inhibition reaches its midpoint.

Each structure is given as a SMILES string.

Sequence of human TRPA1 (O75762 whole entry): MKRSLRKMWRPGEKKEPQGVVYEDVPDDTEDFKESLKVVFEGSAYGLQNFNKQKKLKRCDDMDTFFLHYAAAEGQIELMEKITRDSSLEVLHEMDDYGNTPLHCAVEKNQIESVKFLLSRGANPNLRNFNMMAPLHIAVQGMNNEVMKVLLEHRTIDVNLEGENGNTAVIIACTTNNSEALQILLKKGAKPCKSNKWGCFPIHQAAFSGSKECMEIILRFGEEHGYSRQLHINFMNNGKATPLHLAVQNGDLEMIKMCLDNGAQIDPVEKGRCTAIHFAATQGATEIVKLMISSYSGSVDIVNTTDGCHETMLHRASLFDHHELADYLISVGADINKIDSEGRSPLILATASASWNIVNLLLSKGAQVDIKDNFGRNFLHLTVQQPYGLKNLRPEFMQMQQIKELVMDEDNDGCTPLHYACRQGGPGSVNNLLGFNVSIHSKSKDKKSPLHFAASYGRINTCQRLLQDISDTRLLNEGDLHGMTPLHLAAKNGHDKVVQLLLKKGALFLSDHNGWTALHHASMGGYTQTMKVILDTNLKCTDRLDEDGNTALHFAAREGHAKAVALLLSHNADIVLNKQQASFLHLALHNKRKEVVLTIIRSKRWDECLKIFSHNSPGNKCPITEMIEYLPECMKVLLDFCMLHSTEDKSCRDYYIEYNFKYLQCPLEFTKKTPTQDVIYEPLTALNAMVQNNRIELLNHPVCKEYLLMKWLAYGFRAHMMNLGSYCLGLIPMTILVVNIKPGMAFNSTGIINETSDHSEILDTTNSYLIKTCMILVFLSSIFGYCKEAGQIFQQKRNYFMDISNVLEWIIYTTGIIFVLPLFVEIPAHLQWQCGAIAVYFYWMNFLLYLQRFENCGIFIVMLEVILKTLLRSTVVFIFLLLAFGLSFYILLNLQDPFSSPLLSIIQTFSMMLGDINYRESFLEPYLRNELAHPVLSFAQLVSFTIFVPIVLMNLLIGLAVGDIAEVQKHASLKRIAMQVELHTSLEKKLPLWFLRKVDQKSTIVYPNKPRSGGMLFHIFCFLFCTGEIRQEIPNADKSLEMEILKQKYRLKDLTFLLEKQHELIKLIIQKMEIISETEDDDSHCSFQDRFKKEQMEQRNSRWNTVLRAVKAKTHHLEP

This test concerns the target human TRPA1 (Homo sapiens (Human), UniProt O75762). Briefly: FLIPR Tetra calcium influx assay, block of cinnamaldehyde-induced calcium influx in CHO cells expressing TRPA1 (human). The note with it: 20 min compound incubation, 75 uM cinnamaldehyde (~EC80), Hill coefficient fixed to 1.5, read-out: hTRPA1 AUC IC50. It is filed as cell-based. The method, then: IC50 Determinations of Exemplified Compounds.
IC50s (effective concentration) of compounds on the human and rat TRPA1 channels were determined using a FLIPR Tetra instrument. CHO cells expressing TRPA1 were plated into 384-well plates, incubated overnight at 37C, and loaded with BD calcium indicator dye for 1 hr at 37° C. followed by 15 minutes. at room temperature. The assay buffer was Hank's Balanced Salt Solution (HBSS) containing 20 mM HEPES (pH readjusted to 7.4) along with 0.02% BSA.
Following dye load and plate cool down, compounds were added to the cells using FLIPR Tetra. Plates were then incubated with compounds for 20 minutes at room temperature prior to adding agonist. Following this incubation, ˜EC80 concentration of cinnamaldehyde (75 uM for human TRPA1 and 45 uM for rat TRPA1) was added to active the channels and block of cinnamaldehyde induced calcium influx was measured.
Fixing the Hill coefficient will generally reduce variability of the IC50 determination. The IC50s were individually examined to make sure the MIN and MAX points were set correctly prior to validation of the results.
Consider `O=C(NCc1cc(Cl)nc(-c2ccc(C(F)F)nc2)c1)[C@@H]1C[C@@H](F)CN1S(=O)(=O)c1ccc(F)cc1` [Example 60, (2S,4R)—N-[[2-chloro-6-[6-(difluoromethyl)-3-pyridyl]-4-pyridyl]methyl]-4-fluoro-1-(4-fluorophenyl)sulfonyl-pyrrolidine-2-carboxamide], for which the IC50 stood at 55 nM.

For `O=C(NCc1cc(-c2cnc(C(F)(F)F)nc2)nc(-c2cnc(C(F)(F)F)nc2)c1)[C@@H]1C[C@@H](F)CN1S(=O)(=O)c1ccc(F)cc1` [Example 61, (2S,4R)—N-[[2,6-bis[2-(trifluoromethyl)pyrimidin-5-yl]-4-pyridyl]methyl]-4-fluoro-1-(4-fluorophenyl)sulfonyl-pyrrolidine-2-carboxamide], the half-maximal inhibitory concentration (IC50) came out at 71 nM.

`O=C(NCc1cc(Cl)nc(-c2cnc(C(F)(F)F)nc2)c1)[C@@H]1C[C@@H](F)CN1S(=O)(=O)c1ccc(F)cc1` [Example 62, (2S,4R)—N-[[2-chloro-6-[2-(trifluoromethyl)pyrimidin-5-yl]-4-pyridyl]methyl]-4-fluoro-1-(4-fluorophenyl)sulfonyl-pyrrolidine-2-carboxamide]: the IC50 is 14 nM.

As to `O=C(NCc1cc(-c2ccc(C(F)F)cc2)ncn1)[C@@H]1C[C@@H](F)CN1S(=O)(=O)c1ccc(F)cc1` [Example 63, (2S,4R)—N-[[6-[4-(difluoromethyl)phenyl]pyrimidin-4-yl]methyl]-4-fluoro-1-(4-fluorophenyl)sulfonyl-pyrrolidine-2-carboxamide], the IC50 was determined as 318 nM.

Take `O=C(NCc1cc(-c2ccc(OC(F)F)cc2)ncn1)[C@@H]1C[C@@H](F)CN1S(=O)(=O)c1ccc(F)cc1` [Example 64, (2S,4R)—N-[[6-[4-(difluoromethoxy)phenyl]pyrimidin-4-yl]methyl]-4-fluoro-1-(4-fluorophenyl)sulfonyl-pyrrolidine-2-carboxamide]: the IC50 was determined as 41 nM.

Take `O=C(NCc1cc(N2CCC(OC(F)(F)F)CC2)c(F)cn1)[C@@H]1C[C@@H](F)CN1S(=O)(=O)c1ccc(F)cc1` [Example 66, (2S,4R)-4-fluoro-1-(4-fluorophenyl)sulfonyl-N-[[5-fluoro-4-[4-(trifluoromethoxy)-1-piperidyl]-2-pyridyl]methyl]pyrrolidine-2-carboxamide]: the IC50 was determined as 22 nM.

Consider `O=C(NCc1ccnc(-c2cnc(C(F)(F)F)cn2)c1)[C@@H]1C[C@@H](F)CN1S(=O)(=O)c1ccc(F)cc1` [Example 67, (2S,4R)-4-fluoro-1-(4-fluorophenyl)sulfonyl-N-[[2-[5-(trifluoromethyl)pyrazin-2-yl]-4-pyridyl]methyl]pyrrolidine-2-carboxamide], for which the half-inhibitory concentration (IC50) amounted to 290 nM.

In the case of `O=C(NCc1cc(F)cc(-c2cnc(C(F)(F)F)nc2)c1)[C@@H]1[C@@H](F)CCN1S(=O)(=O)c1ccc(F)cc1` [Example 68, (2R,3S)-3-fluoro-1-(4-fluorophenyl)sulfonyl-N-[[3-fluoro-5-[2-(trifluoromethyl)pyrimidin-5-yl]phenyl]methyl]pyrrolidine-2-carboxamide], the IC50 was 7 nM.

Regarding `O=C(NCc1cc(N2CCC3(CC2)CC3(F)F)c(F)cn1)[C@@H]1C[C@@H](F)CN1S(=O)(=O)c1ccc(F)cc1` [Example 69, (2S,4R)—N-[[4-(2,2-difluoro-6-azaspiro[2.5]octan-6-yl)-5-fluoro-2-pyridyl]methyl]-4-fluoro-1-(4-fluorophenyl)sulfonyl-pyrrolidine-2-carboxamide], the 50% inhibitory concentration (IC50) was found to be 14 nM.

In the case of `N#Cc1cnc(CNC(=O)[C@@H]2C[C@@H](F)CN2S(=O)(=O)c2ccc(F)cc2)cc1-c1ccc(C(F)(F)F)cc1` [Example 70, (2S,4R)—N-((5-cyano-4-(4-(trifluoromethyl)phenyl)pyridin-2-yl)methyl)-4-fluoro-1-(4-fluorophenylsulfonyl)pyrrolidine-2-carboxamide], the IC50 was 23 nM.

On to `N#Cc1cnc(CNC(=O)[C@@H]2C[C@@H](F)CN2S(=O)(=O)c2ccc(F)cc2)cc1-c1ccc(C(F)(F)F)nc1` [Example 71, (2S,4R)—N-[[5-cyano-4-[6-(trifluoromethyl)-3-pyridyl]-2-pyridyl]methyl]-4-fluoro-1-(4-fluorophenyl)sulfonyl-pyrrolidine-2-carboxamide], for which the concentration for half-maximal inhibition (IC50) worked out at 176 nM.

As for `O=C(NCc1cc(-c2ccc(C(F)(F)F)cn2)ccn1)[C@@H]1[C@@H](F)CCN1S(=O)(=O)c1ccc(F)cc1` [Example 72, (2R,3S)-3-fluoro-1-(4-fluorophenyl)sulfonyl-N-[[4-[5-(trifluoromethyl)-2-pyridyl]-2-pyridyl]methyl]pyrrolidine-2-carboxamide], the IC50 stood at 7 nM.

Regarding `O=C(NCc1cc(F)cc(C2CCC(C(F)(F)F)CN2)c1)[C@@H]1C[C@@H](F)CN1S(=O)(=O)c1ccc(F)cc1` (stereo partly drawn) [Example 74, (2S,4R)-4-fluoro-1-(4-fluorophenyl)sulfonyl-N-[[3-fluoro-5-[5-(trifluoromethyl)-2-piperidyl]phenyl]methyl]pyrrolidine-2-carboxamide], the IC50 amounted to 192 nM.

With `O=C(NCc1cc(F)cc(-c2ccc(C(F)F)cn2)c1)[C@@H]1C[C@@H](F)CN1S(=O)(=O)c1ccc(F)cc1` [Example 75, (2S,4R)—N-[[3-[5-(difluoromethyl)-2-pyridyl]-5-fluoro-phenyl]methyl]-4-fluoro-1-(4-fluorophenyl)sulfonyl-pyrrolidine-2-carboxamide], the IC50 came out at 31 nM.

Regarding `O=C(NCc1cc(F)cc(-c2ccc(OC(F)F)nc2)c1)[C@@H]1C[C@@H](F)CN1S(=O)(=O)c1ccc(F)cc1` [Example 76, (2S,4R)—N-([3-[6-(difluoromethoxy)pyridin-3-yl]-5-fluorophenyl]methyl)-4-fluoro-1-[(4-fluorobenzene)sulfonyl]pyrrolidine-2-carboxamide], the 50% inhibitory concentration (IC50) is 39 nM.

With `O=C(NCc1cc(-c2ccc(OC(F)F)cc2)c(F)cn1)[C@@H]1C[C@@H](F)CN1S(=O)(=O)c1ccc(F)cc1` [Example 77, (2S,4R)—N-([4-[4-(difluoromethoxy)phenyl]-5-fluoropyridin-2-yl]methyl)-4-fluoro-1-[(4-fluorobenzene)sulfonyl]pyrrolidine-2-carboxamide], the IC50 worked out at 53 nM.

`N#Cc1cnc(-c2ccc(C(F)(F)F)cc2)cc1CNC(=O)[C@@H]1C[C@@H](F)CN1S(=O)(=O)c1ccc(F)cc1` [Example 78, (2S,4R)—N-([5-cyano-2-[4-(trifluoromethyl)phenyl]pyridin-4-yl]methyl)-4-fluoro-1-[(4-fluorobenzene)sulfonyl]pyrrolidine-2-carboxamide]: the half-inhibitory concentration (IC50) came out at 7 nM.

On to `N#Cc1cnc(-c2ccc(C(F)(F)F)nc2)cc1CNC(=O)[C@@H]1C[C@@H](F)CN1S(=O)(=O)c1ccc(F)cc1` [Example 79, (2S,4R)—N-([5-cyano-2-[6-(trifluoromethyl)pyridin-3-yl]pyridin-4-yl]methyl)-4-fluoro-1-[(4-fluorobenzene)sulfonyl]pyrrolidine-2-carboxamide], for which the IC50 came to 9 nM.

As for `O=C(NCc1cc(-c2ccc(C(F)(F)F)nc2)ncn1)[C@@H]1CC2(CC2)CN1S(=O)(=O)c1ccc(F)cc1` [Example 80], the IC50 worked out at 44 nM.

On to `O=C(NCc1cc(-c2ccc(C(F)(F)F)nc2)ccn1)[C@@H]1C[C@@H](F)CN1S(=O)(=O)c1ccc(F)cc1` [Example 81, (2S,4R)-4-fluoro-1-(4-fluorophenyl)sulfonyl-N-[[4-[6-(trifluoromethyl)-3-pyridyl]-2-pyridyl]methyl]pyrrolidine-2-carboxamide], for which the IC50 turned out to be 187 nM.

Turning to `O=C(NCc1cc(-c2cnc(C(F)(F)F)cn2)ccn1)[C@@H]1C[C@@H](F)CN1S(=O)(=O)c1ccc(F)cc1` [Example 82, (2S,4R)-4-fluoro-1-(4-fluorophenyl)sulfonyl-N-[[4-[5-(trifluoromethyl)pyrazin-2-yl]-2-pyridyl]methyl]pyrrolidine-2-carboxamide], the 50% inhibitory concentration (IC50) was 189 nM.

For `O=C(NCc1cc(-c2ccc(C(F)(F)F)nc2)nc(-c2ccc(C(F)(F)F)nc2)c1)[C@@H]1C[C@@H](F)CN1S(=O)(=O)c1ccc(F)cc1` [Example 83, (2S,4R)—N-[[2,6-bis[6-(trifluoromethyl)-3-pyridyl]-4-pyridyl]methyl]-4-fluoro-1-(4-fluorophenyl)sulfonyl-pyrrolidine-2-carboxamide], the concentration for half-maximal inhibition (IC50) stood at 54.6 nM.

In the case of `O=C(NCc1cc(Cl)nc(-c2ccc(C(F)(F)F)nc2)c1)[C@@H]1C[C@@H](F)CN1S(=O)(=O)c1ccc(F)cc1` [Example 84, (2S,4R)—N-[[2-chloro-6-[6-(trifluoromethyl)-3-pyridyl]-4-pyridyl]methyl]-4-fluoro-1-(4-fluorophenyl)sulfonyl-pyrrolidine-2-carboxamide], the half-maximal inhibitory concentration (IC50) was 14 nM.

Consider `O=C(NCc1cc(F)cc(-n2ccc(C(F)(F)F)cc2=O)c1)[C@@H]1C[C@@H](F)CN1S(=O)(=O)c1ccc(F)cc1` [Example 85, (2S,4R)-4-fluoro-N-[[3-fluoro-5-[2-oxo-4-(trifluoromethyl)-1-pyridyl]phenyl]methyl]-1-(4-fluorophenyl)sulfonyl-pyrrolidine-2-carboxamide], for which the IC50 came out at 771 nM.

`O=C(NCc1cc(F)cc(-n2cc(C(F)(F)F)cn2)c1)[C@@H]1C[C@@H](F)CN1S(=O)(=O)c1ccc(F)cc1` [Example 86, (2S,4R)-4-fluoro-1-(4-fluorophenyl)sulfonyl-N-[[3-fluoro-5-[4-(trifluoromethyl)pyrazol-1-yl]phenyl]methyl]pyrrolidine-2-carboxamide]: the IC50 is 119 nM.
